Patent US20160022699A1, “COMBINATIONS AND METHODS FOR TREATING NON AGE-RELATED HEARING IMPAIRMENT IN A SUBJECT” (Washington University, priority 2012, published 2016)
“Also recorded” adds a separate entry of the source.

Tests used:
[1] = test system: NIHL in mice; settings: cited from earlier work; for prophylactic and therapeutic effects against NIHL: drinking water, three weeks before noise
[2] = test system: noise-induced hearing loss (NIHL) in C57BL/6J mice; assay: NIHL treatment protocol: drug i.p. 24 hours after white noise (110 dB SPL, 30 min), ABR threshold shifts; settings: for drug effect on ABR threshold shift (two-way ANOVA), treatment / gender effect on ABR threshold shift (two-way ANOVA), treatment: 24 hours after noise; for ED50: Mus musculus, ip, 24 h, read-out: median effective dose (ED50) to treat noise-induced hearing loss
[3] = test system: noise-induced hearing loss (NIHL) in C57BL/6J mice; assay: NIHL prevention protocol: drug i.p. two hours before white noise (110 dB SPL, 30 min), ABR thresholds / threshold shifts two weeks after noise; settings: for drug effect on ABR threshold shift (two-way ANOVA), prevention: all dosages; for ED50: Mus musculus, ip, 2 h, read-out: median effective dose (ED50) to prevent noise-induced hearing loss
[4] = test system: NIHL in mice; settings: intraperitoneal injections; cited from earlier work
[5] = test system: cultured auditory cells; settings: cited from earlier work

In the case of `CCC1(C)CC(=O)NC1=O` (stereo not drawn) [ethosuximide], the “prophylactic and therapeutic effects against NIHL” value [1] is given as “both prophylactic and therapeutic effects”, the “drug effect on ABR threshold shift (two-way ANOVA), treatment” value [2] is given as “statistically significant drug effects” and the “gender effect on ABR threshold shift (two-way ANOVA), treatment” value [2] is given as “the gender effect was also significant; also recorded: gender difference was also observed”. The ED50 [2] was 243 mg/kg, the “effect on NIHL (Tukey/Kramer post-hoc)” value ([3]; 60 mg/kg, two hours before noise) was “significantly enhanced NIHL” and the “effect on NIHL (Tukey/Kramer post-hoc)” value ([3]; 90 mg/kg, two hours before noise) was “significantly protected against NIHL”. For the same molecule, the “effect on NIHL (Tukey/Kramer post-hoc)” value ([3]; 130 to 260 mg/kg, two hours before noise) was “reduced to no significance”, the “median effective dose (ED50) to prevent noise-induced hearing loss” value ([3]; i.p. two hours before noise, calculated with CompuSyn (Chou-Talalay)) was “no ED50; also recorded: could not be obtained” and the “gender effect on ABR threshold shift (two-way ANOVA), prevention” value ([3]; two hours before noise) was “showed no gender differences”. The “drug effect on ABR threshold shift (two-way ANOVA), prevention” value ([3]; two hours before noise) was “statistically significant main effect of drug concentrations”.

For `C[C@@H]1C[C@H]2[C@@H]3CCC4=CC(=O)C=C[C@]4(C)[C@@]3(F)[C@@H](O)C[C@]2(C)[C@@]1(O)C(=O)CO` [dexamethasone], the ED50 [2] was 96.3 mg/kg and the ED50 [3] was 39.4 mg/kg.

In the case of `C[C@H]1C[C@@H]2[C@H]([C@@H](O)C[C@@]3(C)[C@H]2CC[C@]3(O)C(=O)CO)[C@@]2(C)C=CC(=O)C=C12` [methylprednisolone], the ED50 [2] is reported as 95.6 mg/kg and the ED50 [3] is reported as 525 mg/kg.

In the case of `NS(=O)(=O)Cc1noc2ccccc12` [zonisamide], the “drug effect on ABR threshold shift (two-way ANOVA), treatment” value [2] is reported as “no statistically significant drug effects”, the “gender effect on ABR threshold shift (two-way ANOVA), treatment” value [2] is reported as “the gender had no effects as well” and the ED50 [2] is reported as 2540 mg/kg. For the same molecule, the ED50 [3] was 125 mg/kg, the “dosage dependence of NIHL prevention” value ([3]; two hours before noise) was “clear dosage-dependent prevention of NIHL” and the “gender effect on ABR threshold shift (two-way ANOVA), prevention” value ([3]; two hours before noise) was “the gender had no effects; also recorded: showed no gender differences”. The “drug effect on ABR threshold shift (two-way ANOVA), prevention” value ([3]; two hours before noise) was “statistically significant drug effects”.

For `COCC(=O)O[C@]1(CCN(C)CCCc2nc3ccccc3[nH]2)CCc2cc(F)ccc2[C@@H]1C(C)C` [mibefradil], the NIHL prophylactic function [4] is listed as “no NIHL prophylactic functions”.

In the case of `CN1C(=O)OC(C)(C)C1=O` [trimethadione], the “prophylactic and therapeutic effects against NIHL” value [1] is listed as “both prophylactic and therapeutic effects”, the “gender dependence of therapeutic effect against NIHL” value ([1]; mouse, in vivo) is listed as “observed only in male mice” and the “outer hair cell (OHC) protection” value ([1]; mouse, in vivo) is listed as “OHC protection was observed”.

In the case of `Fc1ccc(C(c2ccc(F)cc2)N2CCN(C/C=C/c3ccccc3)CC2)cc1` [flunarizine], the NIHL prophylactic function [4] is listed as “no NIHL prophylactic functions” and the cisplatin-induced cell death [5] is listed as “inhibit cisplatin-induced death of cultured auditory cells”.
